From PubChem BioAssay (NCI)
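Abbreviation: GI50, concentration required for 50% inhibition of growth. TGI: total growth inhibition.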

What was measured:
Assay in all cases: growth of human tumour cells (NCI), 384-well format
NCI-H460 NSCLC = system: NCI-H460 NSCLC
RXF 393 renal = system: RXF 393 renal
NCI-H522 lung = system: NCI-H522 lung
A498 renal = system: A498 renal
DU-145 prostate = system: DU-145 prostate
UO-31 renal = system: UO-31 renal
MDA-MB-468 breast = system: MDA-MB-468 breast
MDA-MB-231 breast = system: MDA-MB-231 breast
K-562 leukemia = system: K-562 leukemia
EKVX NSCLC = system: EKVX NSCLC
CAKI-1 renal = system: CAKI-1 renal
SW-620 colon = system: SW-620 colon
HS 578T breast = system: HS 578T breast
OVCAR-3 ovarian = system: OVCAR-3 ovarian
A549 NSCLC = system: A549 NSCLC
HOP-62 NSCLC = system: HOP-62 NSCLC
SF-268 CNS = system: SF-268 CNS
UACC-62 melanoma = system: UACC-62 melanoma
SNB-75 CNS = system: SNB-75 CNS
ACHN renal = system: ACHN renal
M14 melanoma = system: M14 melanoma
SK-MEL-28 melanoma = system: SK-MEL-28 melanoma
MCF7 breast = system: MCF7 breast
TK-10 renal = system: TK-10 renal
T-47D breast = system: T-47D breast
NCI-H23 lung = system: NCI-H23 lung
HL-60(TB) leukemia = system: HL-60(TB) leukemia
MOLT-4 leukemia = system: MOLT-4 leukemia
HCC-2998 colon = system: HCC-2998 colon
SK-MEL-5 melanoma = system: SK-MEL-5 melanoma
BT-549 breast = system: BT-549 breast
SF-539 CNS = system: SF-539 CNS
OVCAR-4 ovarian = system: OVCAR-4 ovarian
HCT-116 colon = system: HCT-116 colon
LOX IMVI melanoma = system: LOX IMVI melanoma
HOP-92 NSCLC = system: HOP-92 NSCLC
HT29 colon = system: HT29 colon
SF-295 CNS = system: SF-295 CNS
UACC-257 melanoma = system: UACC-257 melanoma
SR leukemia = system: SR leukemia
PC-3 prostate = system: PC-3 prostate
MDA-MB-435 melanoma = system: MDA-MB-435 melanoma
NCI-H322M lung = system: NCI-H322M lung
COLO 205 colon = system: COLO 205 colon
MALME-3M melanoma = system: MALME-3M melanoma
SN12C renal = system: SN12C renal
IGROV1 ovarian = system: IGROV1 ovarian
786-0 renal = system: 786-0 renal
SK-OV-3 ovarian = system: SK-OV-3 ovarian
RPMI-8226 leukemia = system: RPMI-8226 leukemia
CCRF-CEM leukemia = system: CCRF-CEM leukemia
NCI/ADR-RES ovarian = system: NCI/ADR-RES ovarian
OVCAR-8 ovarian = system: OVCAR-8 ovarian
U251 glioblastoma = system: U251 glioblastoma
NCI-H226 lung = system: NCI-H226 lung
SNB-19 CNS = system: SNB-19 CNS

C[C@@H]1COCCN1c1cc(-c2ccnn2C)c2ccnc(-c3ccn[nH]3)c2n1
GI50 (NCI-H460 NSCLC): 10.6 nM | TGI (NCI-H460 NSCLC): 515 nM | GI50 (RXF 393 renal): 27.7 nM | TGI (RXF 393 renal): 105 nM | GI50 (NCI-H522 lung): 411 nM | TGI (NCI-H522 lung): 10700 nM | GI50 (A498 renal): 19.3 nM | TGI (A498 renal): 67.7 nM | GI50 (DU-145 prostate): 53 nM | TGI (DU-145 prostate): 16300 nM | GI50 (UO-31 renal): 58.6 nM | TGI (UO-31 renal): 828 nM | GI50 (MDA-MB-468 breast): 192 nM | TGI (MDA-MB-468 breast): 973 nM | GI50 (MDA-MB-231 breast): 353 nM | TGI (MDA-MB-231 breast): > 100000 nM | GI50 (K-562 leukemia): 40.4 nM | TGI (K-562 leukemia): 125 nM | GI50 (EKVX NSCLC): 124 nM | TGI (EKVX NSCLC): 2480 nM | GI50 (CAKI-1 renal): 142 nM | TGI (CAKI-1 renal): 1800 nM | GI50 (SW-620 colon): 247 nM | TGI (SW-620 colon): 19300 nM | GI50 (HS 578T breast): 16.7 nM | TGI (HS 578T breast): 46.5 nM | GI50 (OVCAR-3 ovarian): 91.1 nM | TGI (OVCAR-3 ovarian): 2620 nM | GI50 (A549 NSCLC): 104 nM | TGI (A549 NSCLC): 2230 nM | GI50 (HOP-62 NSCLC): 28 nM | TGI (HOP-62 NSCLC): 155 nM | GI50 (SF-268 CNS): 97.4 nM | TGI (SF-268 CNS): 10500 nM | GI50 (UACC-62 melanoma): 176 nM | TGI (UACC-62 melanoma): 2140 nM | GI50 (SNB-75 CNS): 264 nM | TGI (SNB-75 CNS): 1760 nM | GI50 (ACHN renal): 49.8 nM | TGI (ACHN renal): 225 nM | GI50 (M14 melanoma): 13.2 nM | TGI (M14 melanoma): 41.5 nM | GI50 (SK-MEL-28 melanoma): 1030 nM | TGI (SK-MEL-28 melanoma): 13900 nM | GI50 (MCF7 breast): 18.8 nM | TGI (MCF7 breast): 14200 nM | GI50 (TK-10 renal): 28.7 nM | TGI (TK-10 renal): 94.1 nM | GI50 (T-47D breast): 389 nM | TGI (T-47D breast): 8100 nM | GI50 (NCI-H23 lung): 16.2 nM | TGI (NCI-H23 lung): 56.3 nM | GI50 (HL-60(TB) leukemia): 26.8 nM | TGI (HL-60(TB) leukemia): 83.9 nM | GI50 (MOLT-4 leukemia): < 10 nM | TGI (MOLT-4 leukemia): 15.5 nM | GI50 (HCC-2998 colon): < 10 nM | TGI (HCC-2998 colon): 18 nM | GI50 (SK-MEL-5 melanoma): 202 nM | TGI (SK-MEL-5 melanoma): 873 nM | GI50 (BT-549 breast): 22.2 nM | TGI (BT-549 breast): 87.1 nM | GI50 (SF-539 CNS): 43.2 nM | TGI (SF-539 CNS): 259 nM | GI50 (OVCAR-4 ovarian): 39 nM | TGI (OVCAR-4 ovarian): 2720 nM | GI50 (HCT-116 colon): 32.9 nM | TGI (HCT-116 colon): 7970 nM | GI50 (LOX IMVI melanoma): 98.4 nM | TGI (LOX IMVI melanoma): 1090 nM | GI50 (HOP-92 NSCLC): 36.2 nM | TGI (HOP-92 NSCLC): 339 nM | GI50 (HT29 colon): 234 nM | TGI (HT29 colon): 706 nM | GI50 (SF-295 CNS): 36.9 nM | TGI (SF-295 CNS): 173 nM | GI50 (UACC-257 melanoma): 1820 nM | TGI (UACC-257 melanoma): 14000 nM | GI50 (SR leukemia): < 10 nM | GI50 (PC-3 prostate): 262 nM | TGI (PC-3 prostate): 11800 nM | GI50 (MDA-MB-435 melanoma): 33 nM | TGI (MDA-MB-435 melanoma): 456 nM | GI50 (NCI-H322M lung): 21.7 nM | TGI (NCI-H322M lung): 213 nM | GI50 (COLO 205 colon): 286 nM | TGI (COLO 205 colon): 2580 nM | GI50 (MALME-3M melanoma): 89.6 nM | TGI (MALME-3M melanoma): 985 nM | GI50 (SN12C renal): 273 nM | TGI (SN12C renal): 6650 nM | GI50 (IGROV1 ovarian): 93.2 nM | TGI (IGROV1 ovarian): 2490 nM | GI50 ([…]-0 renal): 37.3 nM | TGI (786-0 renal): 191 nM | GI50 (SK-OV-3 ovarian): 63.5 nM | TGI (SK-OV-3 ovarian): 539 nM | GI50 (RPMI-8226 leukemia): 17.4 nM | TGI (RPMI-8226 leukemia): 45.2 nM | GI50 (CCRF-CEM leukemia): < 10 nM | TGI (CCRF-CEM leukemia): 21.5 nM | GI50 (NCI/ADR-RES ovarian): 72 nM | TGI (NCI/ADR-RES ovarian): 270 nM | GI50 (OVCAR-8 ovarian): 61.1 nM | TGI (OVCAR-8 ovarian): 357 nM | GI50 (U251 glioblastoma): 123 nM | TGI (U251 glioblastoma): 11900 nM | GI50 (NCI-H226 lung): 341 nM | TGI (NCI-H226 lung): 4020 nM | GI50 (SNB-19 CNS): 282 nM | TGI (SNB-19 CNS): 9470 nM
